# Test results taken from US4746675A, “External pharmaceutical composition” (Teijin Limited, priority 1983, dated 1988).
# Key:
# carrageenan edema = carrageenan edema inhibiting effect of betamethasone valerate ointments; assay type: in vivo, rat; conditions: Table 5, betamethasone valerate ointment with penetration enhancer
# Method: An ointment was prepared from 0.15 part by weight of betamethasone valerate, 9.85 parts by weight of compound (168) and 90 parts by weight of the hydrophilic ointment.
# In accordance with the method of R. Passarella et al. [Argneim. Forsch 30, (I), Nr. 4, 647-651 (1980)], the carrageenan edema inhibiting effect of the above ointment was examined. Specifically, 0.1 ml of a 1% carrageenan suspension in 0.9% NaCl solution was injected into the tip of the right leg of a rat (body weight 150-175 g). The foot volume was measured immediately after administration of carrageenan and 3, 5, and 6 hours after the administration by means of a mercury displacement device. 0.5, 1 and 2 hours after the administration of carrageenan, 100 mg of the ointment was well […] into each of the sites which underwent inflammation.
# Various ointments were prepared from 0.15 part by weight of betamethasone valerate, […] of the various penetration enhancers shown in Table 5, and 85 parts by weight of the hydrophilic ointment, and tested in the same way as in Example 23.
# [1] = test system: eye (cornea, iris, conjunctiva); experiment: primary eye irritation (Draize) in rabbits; assay type: in vivo, white native male rabbits; conditions: for Primary irritation score, Conjunctiva / Primary irritation score, Cornea / Primary irritation score, Iris / Primary irritation score, Total: average of three rabbits
# Method: enhancers of this invention shown in Table 17 was applied dropwise to one eye of white native male rabbits (body weight 2.0 to 3.0 kg; 3 per group) which, it had been ascertained, were free from any trouble at the cornea, iris and conjunctiva. Nothing was applied to the other eye. Thus, irritation of the absorption aid to the mucous membrane of the eyes were examined, and scores were calculated in accordance with the Draize's eye irritation evaluating method [Association of Foods, "Drugs and Cosmetics" (1957)].
# As a control, sodium laurylsulfate, a kind of surface-active agent, was evaluated in the same way, and the results are also shown in Table 17.
smiles,measurement,setting,value
"CCCCCCCCCCCC(=O)OCC(O)COC(=O)[C@@H]1CCC(=O)N1 (stereo partly shown) [Compound (172), 3-dodecanoyloxy-2-hydroxy-1-pyroglutamyloxypropane]",Percentage inhibition vs. control,carrageenan edema; 3 hrs,18.1%
same,Percentage inhibition vs. control,carrageenan edema; 5 hrs,37.2%
same,Percentage inhibition vs. control,carrageenan edema; 6 hrs,35.5%
same,"Primary irritation score, Conjunctiva","[1]; 2.4% soln, 1 hour",3.3
same,"Primary irritation score, Cornea","[1]; 2.4% soln, 1 hour",0
same,"Primary irritation score, Iris","[1]; 2.4% soln, 1 hour",0
same,"Primary irritation score, Total","[1]; 2.4% soln, 1 hour",3.3
same,"Primary irritation score, Conjunctiva","[1]; 2.4% soln, 3 hours",2.0
same,"Primary irritation score, Cornea","[1]; 2.4% soln, 3 hours",0
same,"Primary irritation score, Iris","[1]; 2.4% soln, 3 hours",0
same,"Primary irritation score, Total","[1]; 2.4% soln, 3 hours",2.0
same,"Primary irritation score, Conjunctiva","[1]; 2.4% soln, 6 hours",1.3
same,"Primary irritation score, Cornea","[1]; 2.4% soln, 6 hours",0
same,"Primary irritation score, Iris","[1]; 2.4% soln, 6 hours",0
same,"Primary irritation score, Total","[1]; 2.4% soln, 6 hours",1.3
same,"Primary irritation score, Conjunctiva","[1]; 2.4% soln, 24 hours",0
same,"Primary irritation score, Cornea","[1]; 2.4% soln, 24 hours",0
same,"Primary irritation score, Iris","[1]; 2.4% soln, 24 hours",0
same,"Primary irritation score, Total","[1]; 2.4% soln, 24 hours",0
same,"Primary irritation score, Conjunctiva","[1]; 2.4% soln, 48 hours",0
same,"Primary irritation score, Cornea","[1]; 2.4% soln, 48 hours",0
same,"Primary irritation score, Iris","[1]; 2.4% soln, 48 hours",0
same,"Primary irritation score, Total","[1]; 2.4% soln, 48 hours",0
same,"Primary irritation score, Conjunctiva","[1]; 2.4% soln, 72 hours",0
same,"Primary irritation score, Cornea","[1]; 2.4% soln, 72 hours",0
same,"Primary irritation score, Iris","[1]; 2.4% soln, 72 hours",0
same,"Primary irritation score, Total","[1]; 2.4% soln, 72 hours",0
same,"Primary irritation score, Conjunctiva","[1]; 2.4% soln, 96 hours",0
same,"Primary irritation score, Cornea","[1]; 2.4% soln, 96 hours",0
same,"Primary irritation score, Iris","[1]; 2.4% soln, 96 hours",0
same,"Primary irritation score, Total","[1]; 2.4% soln, 96 hours",0
same,"Primary irritation score, Conjunctiva","[1]; 2.4% soln, 168 hours",0
same,"Primary irritation score, Cornea","[1]; 2.4% soln, 168 hours",0
same,"Primary irritation score, Iris","[1]; 2.4% soln, 168 hours",0
same,"Primary irritation score, Total","[1]; 2.4% soln, 168 hours",0
"CCCCCCCC(=O)OCC(O)COC(=O)[C@@H]1CCC(=O)N1 (stereo partly shown) [Compound (160), 2-hydroxy-3-octanoyloxy-1-pyroglutamyloxypropane]",Percentage inhibition vs. control,carrageenan edema; 3 hrs,17.7%
same,Percentage inhibition vs. control,carrageenan edema; 5 hrs,30.8%
same,Percentage inhibition vs. control,carrageenan edema; 6 hrs,29.9%
"CCCCCCOCC(O)COC(=O)[C@@H]1CCC(=O)N1 (stereo partly shown) [Compound (104), 3-hexyloxy-2-hydroxy-1-pyroglutamyloxypropane]",Percentage inhibition vs. control,carrageenan edema; 3 hrs,18.3%
same,Percentage inhibition vs. control,carrageenan edema; 5 hrs,35.3%
same,Percentage inhibition vs. control,carrageenan edema; 6 hrs,37.0%
"CCCCC(=O)OCC(COC(=O)[C@@H]1CCC(=O)N1)OC(=O)CCCC (stereo partly shown) [Compound (158), 2,3-divaleryloxy-1-pyroglutamyloxypropane]",Percentage inhibition vs. control,carrageenan edema; 3 hrs,18.0%
same,Percentage inhibition vs. control,carrageenan edema; 5 hrs,36.0%
same,Percentage inhibition vs. control,carrageenan edema; 6 hrs,36.1%
"CCCCCCCCCCCCCCCCCCOCC(O)COC(=O)[C@@H]1CCC(=O)N1 (stereo partly shown) [Compound (112), 2-hydroxy-3-octadecyloxy-1-pyroglutamyloxypropane]",Percentage inhibition vs. control,carrageenan edema; 3 hrs,17.8%
same,Percentage inhibition vs. control,carrageenan edema; 5 hrs,32.2%
same,Percentage inhibition vs. control,carrageenan edema; 6 hrs,33.0%
"CCCCCCCCCCCCOS(=O)(=O)[O-].[Na+] [Sodium Laurylsulfate, sodium laurylsulfate, reference compound]","Primary irritation score, Conjunctiva","[1]; 0.1% soln, 1 hour",4.0
same,"Primary irritation score, Cornea","[1]; 0.1% soln, 1 hour",0
same,"Primary irritation score, Iris","[1]; 0.1% soln, 1 hour",0
same,"Primary irritation score, Total","[1]; 0.1% soln, 1 hour",4.0
same,"Primary irritation score, Conjunctiva","[1]; 0.1% soln, 3 hours",4.0
same,"Primary irritation score, Cornea","[1]; 0.1% soln, 3 hours",0
same,"Primary irritation score, Iris","[1]; 0.1% soln, 3 hours",0
same,"Primary irritation score, Total","[1]; 0.1% soln, 3 hours",4.0
same,"Primary irritation score, Conjunctiva","[1]; 0.1% soln, 6 hours",0
same,"Primary irritation score, Cornea","[1]; 0.1% soln, 6 hours",0
same,"Primary irritation score, Iris","[1]; 0.1% soln, 6 hours",0
same,"Primary irritation score, Total","[1]; 0.1% soln, 6 hours",0
same,"Primary irritation score, Conjunctiva","[1]; 0.1% soln, 24 hours",0
same,"Primary irritation score, Cornea","[1]; 0.1% soln, 24 hours",0
same,"Primary irritation score, Iris","[1]; 0.1% soln, 24 hours",0
same,"Primary irritation score, Total","[1]; 0.1% soln, 24 hours",0
same,"Primary irritation score, Conjunctiva","[1]; 0.1% soln, 48 hours",0
same,"Primary irritation score, Cornea","[1]; 0.1% soln, 48 hours",0
same,"Primary irritation score, Iris","[1]; 0.1% soln, 48 hours",0
same,"Primary irritation score, Total","[1]; 0.1% soln, 48 hours",0
same,"Primary irritation score, Conjunctiva","[1]; 0.1% soln, 72 hours",0
same,"Primary irritation score, Cornea","[1]; 0.1% soln, 72 hours",0
same,"Primary irritation score, Iris","[1]; 0.1% soln, 72 hours",0
same,"Primary irritation score, Total","[1]; 0.1% soln, 72 hours",0
same,"Primary irritation score, Conjunctiva","[1]; 0.1% soln, 96 hours",0
same,"Primary irritation score, Cornea","[1]; 0.1% soln, 96 hours",0
same,"Primary irritation score, Iris","[1]; 0.1% soln, 96 hours",0
same,"Primary irritation score, Total","[1]; 0.1% soln, 96 hours",0
same,"Primary irritation score, Conjunctiva","[1]; 0.1% soln, 168 hours",0
same,"Primary irritation score, Cornea","[1]; 0.1% soln, 168 hours",0
same,"Primary irritation score, Iris","[1]; 0.1% soln, 168 hours",0
same,"Primary irritation score, Total","[1]; 0.1% soln, 168 hours",0
same,"Primary irritation score, Conjunctiva","[1]; 2.4% soln, 1 hour",13.3
same,"Primary irritation score, Cornea","[1]; 2.4% soln, 1 hour",0
same,"Primary irritation score, Iris","[1]; 2.4% soln, 1 hour",5.0
same,"Primary irritation score, Total","[1]; 2.4% soln, 1 hour",18.3
same,"Primary irritation score, Conjunctiva","[1]; 2.4% soln, 3 hours",12.7
same,"Primary irritation score, Cornea","[1]; 2.4% soln, 3 hours",0
same,"Primary irritation score, Iris","[1]; 2.4% soln, 3 hours",0
same,"Primary irritation score, Total","[1]; 2.4% soln, 3 hours",12.7
same,"Primary irritation score, Conjunctiva","[1]; 2.4% soln, 6 hours",11.3
same,"Primary irritation score, Cornea","[1]; 2.4% soln, 6 hours",0
same,"Primary irritation score, Iris","[1]; 2.4% soln, 6 hours",0
same,"Primary irritation score, Total","[1]; 2.4% soln, 6 hours",11.3
same,"Primary irritation score, Conjunctiva","[1]; 2.4% soln, 24 hours",8.0
same,"Primary irritation score, Cornea","[1]; 2.4% soln, 24 hours",0
same,"Primary irritation score, Iris","[1]; 2.4% soln, 24 hours",0
same,"Primary irritation score, Total","[1]; 2.4% soln, 24 hours",8.0
same,"Primary irritation score, Conjunctiva","[1]; 2.4% soln, 48 hours",4.0
same,"Primary irritation score, Cornea","[1]; 2.4% soln, 48 hours",0
same,"Primary irritation score, Iris","[1]; 2.4% soln, 48 hours",0
same,"Primary irritation score, Total","[1]; 2.4% soln, 48 hours",4.0
same,"Primary irritation score, Conjunctiva","[1]; 2.4% soln, 72 hours",2.7
same,"Primary irritation score, Cornea","[1]; 2.4% soln, 72 hours",0
same,"Primary irritation score, Iris","[1]; 2.4% soln, 72 hours",0
same,"Primary irritation score, Total","[1]; 2.4% soln, 72 hours",2.7
same,"Primary irritation score, Conjunctiva","[1]; 2.4% soln, 96 hours",2.0
same,"Primary irritation score, Cornea","[1]; 2.4% soln, 96 hours",0
same,"Primary irritation score, Iris","[1]; 2.4% soln, 96 hours",0
same,"Primary irritation score, Total","[1]; 2.4% soln, 96 hours",2.0
same,"Primary irritation score, Conjunctiva","[1]; 2.4% soln, 168 hours",0.7
same,"Primary irritation score, Cornea","[1]; 2.4% soln, 168 hours",0
same,"Primary irritation score, Iris","[1]; 2.4% soln, 168 hours",0
same,"Primary irritation score, Total","[1]; 2.4% soln, 168 hours",0.7
same,eye irritation (in words),"[1]; rabbit, in vivo",fairly strong irritation
"CCCCCCCC/C=C\CCCCCCCC(=O)OCC(COC(=O)C1CCC(=O)N1)OC(=O)CCCCCCC/C=C\CCCCCCCC (stereo not shown) [Compound (170), 2,3,-dioleoyloxy-1-pyroglutamyloxypropane]",Percentage inhibition vs. control,carrageenan edema; 3 hrs,17.9%
same,Percentage inhibition vs. control,carrageenan edema; 5 hrs,33.4%
same,Percentage inhibition vs. control,carrageenan edema; 6 hrs,36.2%
"CCCCCCCCCCCCCCCCCCOCC(COC(=O)[C@@H]1CCC(=O)N1)OCCCCCCCCCCCCCCCCCC (stereo partly shown) [Compound (124), 2,3-dioctadecyloxy-1-pyroglutamyloxypropane]",Percentage inhibition vs. control,carrageenan edema; 3 hrs,19.5%
same,Percentage inhibition vs. control,carrageenan edema; 5 hrs,37.8%
same,Percentage inhibition vs. control,carrageenan edema; 6 hrs,36.6%
"CCCCCCCCOCC(COC(=O)[C@@H]1CCC(=O)N1)OCCCCCCCC (stereo partly shown) [Compound (122), 2,3-dioctyloxy-1-pyroglutamyloxypropane]",Percentage inhibition vs. control,carrageenan edema; 3 hrs,20.2%
same,Percentage inhibition vs. control,carrageenan edema; 5 hrs,36.5%
same,Percentage inhibition vs. control,carrageenan edema; 6 hrs,38.3%
"CCCCCCCCCCCCCCCC1OCC(COC(=O)C2CCC(=O)N2)O1 (stereo not shown) [Compound (220), 2,3-dioxo-(pentadecyl)methylene-1-pyroglutamyloxypropane]",Percentage inhibition vs. control,carrageenan edema; 3 hrs,16.6%
same,Percentage inhibition vs. control,carrageenan edema; 5 hrs,29.7%
same,Percentage inhibition vs. control,carrageenan edema; 6 hrs,29.8%
"CCC=CC(=O)OCC(O)COC(=O)[C@@H]1CCC(=O)N1 (stereo partly shown) [Compound (184), 2-hydroxy-3(2-pentenoyloxy)-1-pyroglutamyloxypropane]",Percentage inhibition vs. control,carrageenan edema; 3 hrs,19.0%
same,Percentage inhibition vs. control,carrageenan edema; 5 hrs,35.3%
same,Percentage inhibition vs. control,carrageenan edema; 6 hrs,35.5%
"CCCCCCCC=CCCCCCCCCOCC(COC(=O)[C@@H]1CCC(=O)N1)OCCCCCCCCC=CCCCCCCC (stereo partly shown) [Compound (142), 2,3-di(9-heptadecenyloxy)-1-pyroglutamyloxypropane]",Percentage inhibition vs. control,carrageenan edema; 3 hrs,16.5%
same,Percentage inhibition vs. control,carrageenan edema; 5 hrs,34.6%
same,Percentage inhibition vs. control,carrageenan edema; 6 hrs,34.0%
"CCCCC(=O)OCC(O)COC(=O)[C@@H]1CCC(=O)N1 (stereo partly shown) [Compound (156), 2-hydroxy-3-valeryloxy-1-pyroglutamyloxypropane]",Percentage inhibition vs. control,carrageenan edema; 3 hrs,18.6%
same,Percentage inhibition vs. control,carrageenan edema; 5 hrs,35.1%
same,Percentage inhibition vs. control,carrageenan edema; 6 hrs,34.3%
"CC1(C)OCC(COC(=O)C2CCC(=O)N2)O1 (stereo not shown) [Compound (202), 2,3-dioxo-(dimethyl)methylene-1-pyroglutamyloxypropane]",Percentage inhibition vs. control,carrageenan edema; 3 hrs,17.7%
same,Percentage inhibition vs. control,carrageenan edema; 5 hrs,39.6%
same,Percentage inhibition vs. control,carrageenan edema; 6 hrs,36.1%
"CCCCCCCCCCC=CCCCCCCCCCC(=O)OCC(O)COC(=O)[C@@H]1CCC(=O)N1 (stereo partly shown) [Compound (192), 3-(11-docosenoyloxy)-2-hydroxy-1-pyroglutamyloxypropane]",Percentage inhibition vs. control,carrageenan edema; 3 hrs,19.5%
same,Percentage inhibition vs. control,carrageenan edema; 5 hrs,36.7%
same,Percentage inhibition vs. control,carrageenan edema; 6 hrs,30.8%
